Assay results reported in patent US20050112573A1, “Method of detecting toxic substance” (priority 2001, published 2005).

Test system: yeast genes (level of expressed mRNA)
Assay: DNA chip analysis of expressed mRNA of yeast genes after 2 h culture with a toxic chemical substance
Format: cell-based, Saccharomyces cerevisiae S288C
Details: for The level of expressed mRNA in the presence of chemical substance/ in its absence, gene YDL078C: yeast gene YDL078C; for The level of expressed mRNA in the presence of chemical substance/ (ratio to absence of chemical substance): stress protein genes, DNA chip
Protocol: Yeast (Saccharomyces cerevtisiae S288C (α SUC2mal mel gap2 CUP1)) were cultured at 25° C. on YPD medium (yeast extract 1%, polypepton 2%, glucose 2%). One of toxic chemical substances was added to the cell at logarithmic growth phase, and the cell was further cultured for two hours. Cell was cultured without any chemical substance in the same condition, and was used as control. Concentrations of the chemical substances were defined to inhibit the growth of the yeast but not lead to death.
After the completion of cultivation, the culture was centrifuged to collect the cells. To the cells, sodium acetate buffer (50 mM sodium acetate, 10 mM EDTA, 1% SDS) was added, and the mixture was shaken at 65° C. for five minutes, followed by returning to room temperature, and obtaining the supernatant, which procedure was repeated two times. To the supernatant, ½ amount of a solution of phenol/chloroform was added, and the mixture was centrifuged to give a supernatant, which was added with an equal amount of chloroform, and the mixture was centrifuged to give a supernatant. To the supernatant, an equal amount of isopropanol containing 0.3 M sodium acetate was added, and the mixture was allowed to stand at room temperature for 30 minutes, after which the mixture was centrifuged to give a sediment of the whole RNAs. Seventy % ethanol was added to the sediment, and the mixture was again centrifuged to give a sediment, which was then dried and dissolved in water. mRNA was isolated from the whole RNAs as followings. In view of the fact that a poly A chain is attached to the 3′ terminus of mRNA, a polynucleotide having a poly T structure which was immobilized on the surface of latex beads was used to trap the mRNA, and then the mRNA was washed and eluted with spine column (Oligotex-dT30<Super>mRNA Purification Kit, Takara). Reverse transcription of the mRNA was conducted with a reverse transcriptase (Super Script II Reverse Transcriptase; catalogue No. 18064-014, GibcoBRL) using fluorescence-labeled nucleotides to give cDNAs that were introduced with Cy3-dUTP or Cy5-dUTP during the reverse transcription.
The labeled cDNAs were dissolved in TE buffer (10 mM Tris-HCl/1 mM EDTA, pH8.0), and the solution was dropped on the DNA chip containing the whole genes of yeast (DNA Chip Research Inc. Japan) so that the cDNAs were hybridized on the DNA chip at 65° C. for over 12 hours. The fluoresces intensity of the DNA chip was read with a scanner, and the ratio relative to the fluorescence intensity resulting from the absence of chemical substance was estimated as the following, which is shown in Tables 1 to 9: [formula]
In the Tables, “Intensity” indicated in the rightmost column is a value of the level of expressed mRNA of each gene in control cells as divided by the average level of the expressions of the whole genes.

S=C([S-])NCCNC(=S)[S-].[Zn+2] [(11), zinc N,N′-ethylenebis(dithiocarbamate)]
The level of expressed mRNA in the presence of chemical substance/ in its absence, gene YDL078C (energy system protein genes, 2 h culture with the chemical, ratio to control without chemical): 1.7
The level of expressed mRNA in the presence of chemical substance/ in its absence, gene YDL078C (ratio of DNA chip fluorescence intensity to that without chemical substance): 1.7
The level of expressed mRNA in the presence of chemical substance/ (in its absence), gene YDL215C (yeast gene YDL215C, ratio of DNA chip fluorescence intensity to that without chemical substance): 0.8
The level of expressed mRNA in the presence of chemical substance/The level of expressed mRNA in the absence of chemical substance (yeast gene YDL238C): 1.1
The level of expressed mRNA in the presence of chemical substance/The level of expressed mRNA in the absence of chemical substance (yeast gene YDR055W): 2.2
The level of expressed mRNA in the presence of chemical substance/ (in its absence), gene YDR073W (yeast gene YDR073W, ratio of DNA chip fluorescence intensity to that without chemical substance): 1.0
The level of expressed mRNA in the presence of chemical substance/ in its absence, gene YDR079W (yeast gene YDR079W, energy system protein genes, 2 h culture with the chemical, ratio to control without chemical): 1.3
The level of expressed mRNA in the presence of chemical substance/ (ratio to absence), gene YDR079W (yeast gene YDR079W, mitochondria-located protein genes, 2 h culture with chemical): 1.3
The level of expressed mRNA in the presence of chemical substance/The level of expressed mRNA in the absence of chemical substance (yeast gene YDR084C): 0.7
The level of expressed mRNA in the presence of chemical substance/The level of expressed mRNA in the absence of chemical substance (yeast gene YDR085C): 1.7
The level of expressed mRNA in the presence of chemical substance/The level of expressed mRNA in the absence of chemical substance (yeast gene YDR104C): 1.0
The level of expressed mRNA in the presence of chemical substance/The level of expressed mRNA in the absence of chemical substance (yeast gene YDR115W): 1.2
The level of expressed mRNA in the presence of chemical substance/The level of expressed mRNA in the absence of chemical substance (yeast gene YDR259C): 1.2
The level of expressed mRNA in the presence of chemical substance/ (in its absence), gene YDR297W (yeast gene YDR297W, ratio of DNA chip fluorescence intensity to that without chemical substance): 1.4
The level of expressed mRNA in the presence of chemical substance/The level of expressed mRNA in the absence of chemical substance (yeast gene YDR315C): 1.1
The level of expressed mRNA in the presence of chemical substance/The level of expressed mRNA in the absence of chemical substance (yeast gene YDR358W): 1.0
The level of expressed mRNA in the presence of chemical substance/ (ratio to absence), gene YDR377W (yeast gene YDR377W, mitochondria-located protein genes, 2 h culture with chemical): 1.4
The level of expressed mRNA in the presence of chemical substance/ (in its absence), gene YDR387C (yeast gene YDR387C, ratio of DNA chip fluorescence intensity to that without chemical substance): 2.0
The level of expressed mRNA in the presence of chemical substance/The level of expressed mRNA in the absence of chemical substance (yeast gene YDR388W): 1.6
The level of expressed mRNA in the presence of chemical substance/The level of expressed mRNA in the absence of chemical substance (yeast gene YDR432W): 0.6
The level of expressed mRNA in the presence of chemical substance/The level of expressed mRNA in the absence of chemical substance (yeast gene YDR481C): 1.2
The level of expressed mRNA in the presence of chemical substance/The level of expressed mRNA in the absence of chemical substance (yeast gene YDR510W): 1.6
The level of expressed mRNA in the presence of chemical substance/ (ratio to absence of chemical substance) (yeast gene YEL039C): 1.7
The level of expressed mRNA in the presence of chemical substance/The level of expressed mRNA in the absence of chemical substance (yeast gene YEL042W): 1.6
The level of expressed mRNA in the presence of chemical substance/The level of expressed mRNA in the absence of chemical substance (yeast gene YEL066W): 1.9
The level of expressed mRNA in the presence of chemical substance/ (in its absence), gene YER015W (yeast gene YER015W, ratio of DNA chip fluorescence intensity to that without chemical substance): 1.0
The level of expressed mRNA in the presence of chemical substance/The level of expressed mRNA in the absence of chemical substance (yeast gene YER039C): 1.2
The level of expressed mRNA in the presence of chemical substance/ (ratio to absence of chemical substance) (yeast gene YER057C): 1.8
The level of expressed mRNA in the presence of chemical substance/The level of expressed mRNA in the absence of chemical substance (yeast gene YER107C): 0.7
The level of expressed mRNA in the presence of chemical substance/The level of expressed mRNA in the absence of chemical substance (yeast gene YER130C): 0.9
The level of expressed mRNA in the presence of chemical substance/The level of expressed mRNA in the absence of chemical substance (yeast gene YFL028C): 1.3
The level of expressed mRNA in the presence of chemical substance/The level of expressed mRNA in the absence of chemical substance (yeast gene YFL043C): 1.1
The level of expressed mRNA in the presence of chemical substance/ (in its absence), gene YGL035C (yeast gene YGL035C, ratio of DNA chip fluorescence intensity to that without chemical substance): 1.3
The level of expressed mRNA in the presence of chemical substance/ (in its absence), gene YGL115W (yeast gene YGL115W, ratio of DNA chip fluorescence intensity to that without chemical substance): 1.0
The level of expressed mRNA in the presence of chemical substance/ (ratio to absence of chemical substance) (yeast gene YGL115W): 1.0
The level of expressed mRNA in the presence of chemical substance/The level of expressed mRNA in the absence of chemical substance (yeast gene YGL158W): 0.2
The level of expressed mRNA in the presence of chemical substance/ (ratio to absence), gene YGL187C (yeast gene YGL187C, mitochondria-located protein genes, 2 h culture with chemical): 0.7
The level of expressed mRNA in the presence of chemical substance/ (in its absence), gene YGL205W (yeast gene YGL205W, ratio of DNA chip fluorescence intensity to that without chemical substance): 0.4
The level of expressed mRNA in the presence of chemical substance/The level of expressed mRNA in the absence of chemical substance (yeast gene YGL229C): 1.1
The level of expressed mRNA in the presence of chemical substance/ in its absence, gene YGR062C (yeast gene YGR062C, energy system protein genes, 2 h culture with the chemical, ratio to control without chemical): 1.6
The level of expressed mRNA in the presence of chemical substance/ (ratio to absence), gene YGR062C (yeast gene YGR062C, mitochondria-located protein genes, 2 h culture with chemical): 1.6
The level of expressed mRNA in the presence of chemical substance/ (in its absence), gene YGR096W (yeast gene YGR096W, ratio of DNA chip fluorescence intensity to that without chemical substance): 0.8
The level of expressed mRNA in the presence of chemical substance/The level of expressed mRNA in the absence of chemical substance (yeast gene YGR136W): 1.3
The level of expressed mRNA in the presence of chemical substance/The level of expressed mRNA in the absence of chemical substance (yeast gene YGR189C): 1.5
The level of expressed mRNA in the presence of chemical substance/The level of expressed mRNA in the absence of chemical substance (yeast gene YGR213C): 1.6
The level of expressed mRNA in the presence of chemical substance/The level of expressed mRNA in the absence of chemical substance (yeast gene YGR257C): 1.2
The level of expressed mRNA in the presence of chemical substance/ (in its absence), gene YGR287C (yeast gene YGR287C, ratio of DNA chip fluorescence intensity to that without chemical substance): 1.5
The level of expressed mRNA in the presence of chemical substance/ (in its absence), gene YGR288W (yeast gene YGR288W, ratio of DNA chip fluorescence intensity to that without chemical substance): 1.3
The level of expressed mRNA in the presence of chemical substance/ (ratio to absence of chemical substance) (yeast gene YHL028W): 0.7
The level of expressed mRNA in the presence of chemical substance/ (ratio to absence of chemical substance) (yeast gene YHL046C): 0.4
The level of expressed mRNA in the presence of chemical substance/The level of expressed mRNA in the absence of chemical substance (yeast gene YHR004C): 0.8
The level of expressed mRNA in the presence of chemical substance/The level of expressed mRNA in the absence of chemical substance (yeast gene YHR071W): 1.8
The level of expressed mRNA in the presence of chemical substance/The level of expressed mRNA in the absence of chemical substance (yeast gene YHR139C): 3.5
The level of expressed mRNA in the presence of chemical substance/The level of expressed mRNA in the absence of chemical substance (yeast gene YHR142W): 1.1
The level of expressed mRNA in the presence of chemical substance/ (in its absence), gene YHR210C (yeast gene YHR210C, ratio of DNA chip fluorescence intensity to that without chemical substance): 1.5
The level of expressed mRNA in the presence of chemical substance/ (in its absence), gene YIL006W (yeast gene YIL006W, ratio of DNA chip fluorescence intensity to that without chemical substance): 1.0
The level of expressed mRNA in the presence of chemical substance/ (ratio to absence of chemical substance) (yeast gene YIL011W): 2.5
